Reference: ChEMBL document CHEMBL4715760, “Balancing potency, metabolic stability and permeability in pyrrolopyrimidine-based EGFR inhibitors” (Eur J Med Chem, 2016)

How the values were obtained:
[1] = target: Vascular endothelial growth factor receptor 3 (Homo sapiens) (UniProt P35916); experiment: Inhibition of recombinant human GST-tagged FLT4 (800 to 1297 residues) expressed in baculovirus expression system at 500 nM using Tyr 04 peptide as substrate incubated for 1 hr in presence of ATP at its Km concentration by Z'-LYTE assay relative to control
[2] = target: Glycogen synthase kinase-3 beta (Homo sapiens) (UniProt P49841); experiment: Inhibition of recombinant full-length human His-tagged GSK3beta expressed in baculovirus expression system at 500 nM using Ser/Thr 09 as substrate incubated for 1 hr in presence of ATP at its Km concentration by Z'-LYTE assay relative to control
[3] = target: Mitogen-activated protein kinase 8 (Homo sapiens) (UniProt P45983); experiment: Inhibition of recombinant human His tagged human MAPK8 expressed in baculovirus expression system at 500 nM using Ser/Thr 04 as substrate incubated for 1 hr in presence of 100 uM ATP by Z'-LYTE assay relative to control
[4] = target: Tyrosine-protein kinase Fer (Homo sapiens) (UniProt P16591); experiment: Inhibition of recombinant human GST-tagged FER (541 to 822 residues) expressed in baculovirus expression system at 500 nM using Tyr 05 peptide as substrate incubated for 1 hr in presence of ATP at its Km concentration by Z'-LYTE assay relative to control
[5] = target: Fibroblast growth factor receptor 1 (Homo sapiens) (UniProt P11362); experiment: Inhibition of recombinant human His-tagged FGFR1 (308 to 731 residues) expressed in baculovirus expression system at 500 nM using Tyr 04 peptide as substrate incubated for 1 hr in presence of ATP at its Km concentration by Z'-LYTE assay relative to control
[6] = target: T1, Serine/threonine-protein kinase Nek1 (Homo sapiens) (UniProt Q96PY6); experiment: Inhibition of recombinant human GST-tagged NEK1 (1 to 505 residues) expressed in baculovirus expression system at 500 nM using Ser/Thr 07 as substrate incubated for 1 hr in presence of ATP at its Km concentration by Z'-LYTE assay relative to control
T1 sequence (whole entry): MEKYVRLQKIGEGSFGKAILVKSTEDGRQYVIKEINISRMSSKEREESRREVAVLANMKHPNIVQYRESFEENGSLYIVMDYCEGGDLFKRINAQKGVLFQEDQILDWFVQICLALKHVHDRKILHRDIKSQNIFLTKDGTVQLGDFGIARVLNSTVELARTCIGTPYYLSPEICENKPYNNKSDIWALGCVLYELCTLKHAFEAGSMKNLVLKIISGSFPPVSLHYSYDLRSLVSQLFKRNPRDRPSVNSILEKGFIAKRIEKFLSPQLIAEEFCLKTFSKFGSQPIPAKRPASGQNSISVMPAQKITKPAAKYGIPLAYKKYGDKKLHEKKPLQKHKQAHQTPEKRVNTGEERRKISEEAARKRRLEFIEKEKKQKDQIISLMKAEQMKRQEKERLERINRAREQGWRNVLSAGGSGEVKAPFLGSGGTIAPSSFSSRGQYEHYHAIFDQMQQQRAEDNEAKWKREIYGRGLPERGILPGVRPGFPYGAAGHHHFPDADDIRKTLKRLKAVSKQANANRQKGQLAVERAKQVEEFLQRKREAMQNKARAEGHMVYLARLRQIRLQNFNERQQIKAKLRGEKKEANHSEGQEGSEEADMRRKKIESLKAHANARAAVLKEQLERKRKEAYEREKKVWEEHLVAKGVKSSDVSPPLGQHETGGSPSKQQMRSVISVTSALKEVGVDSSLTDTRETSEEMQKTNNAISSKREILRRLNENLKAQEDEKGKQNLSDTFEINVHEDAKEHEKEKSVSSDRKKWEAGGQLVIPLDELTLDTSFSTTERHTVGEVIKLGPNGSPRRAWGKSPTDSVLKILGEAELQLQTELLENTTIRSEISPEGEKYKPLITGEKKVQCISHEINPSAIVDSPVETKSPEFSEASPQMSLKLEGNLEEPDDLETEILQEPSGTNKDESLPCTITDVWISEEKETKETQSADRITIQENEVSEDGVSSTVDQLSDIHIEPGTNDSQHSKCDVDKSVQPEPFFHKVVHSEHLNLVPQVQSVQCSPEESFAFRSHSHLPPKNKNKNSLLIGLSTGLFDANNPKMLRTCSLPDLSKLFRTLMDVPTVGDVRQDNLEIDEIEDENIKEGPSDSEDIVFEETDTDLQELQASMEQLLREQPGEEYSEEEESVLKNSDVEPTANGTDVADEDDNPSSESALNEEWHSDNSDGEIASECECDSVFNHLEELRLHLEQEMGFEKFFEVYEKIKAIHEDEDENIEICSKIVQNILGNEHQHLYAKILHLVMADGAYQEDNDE

[7] = target: Tyrosine-protein kinase Blk (Homo sapiens) (UniProt P51451); experiment: Inhibition of recombinant human His-tagged full length BLK expressed in baculovirus expression system at 500 nM using Tyr 01 peptide as substrate incubated for 1 hr in presence of ATP at its Km concentration by Z'-LYTE assay relative to control
[8] = target: Ephrin type-A receptor 2 (Homo sapiens) (UniProt P29317); experiment: Inhibition of recombinant human GST-tagged EPHA2 cytoplasmic domain expressed in baculovirus expression system at 500 nM using Tyr 01 peptide as substrate incubated for 1 hr in presence of ATP at its Km concentration by Z'-LYTE assay relative to control
[9] = target: Platelet-derived growth factor receptor beta (Homo sapiens) (UniProt P09619); experiment: Inhibition of recombinant human His-tagged PDGFRbeta cytoplasmic domain expressed in baculovirus expression system at 500 nM using Tyr 04 as substrate incubated for 1 hr in presence of ATP at its Km concentration by Z'-LYTE assay relative to control
[10] = target: cAMP-dependent protein kinase catalytic subunit alpha (Homo sapiens) (UniProt P17612); experiment: Inhibition of recombinant human His-tagged PRKACA (1 to 351 residues) expressed in Escherichia coli expression system at 500 nM using Ser/Thr 01 as substrate incubated for 1 hr in presence of ATP at its Km concentration by Z'-LYTE assay relative to control
[11] = target: Serine/threonine-protein kinase B-raf (Homo sapiens) (UniProt P15056); experiment: Inhibition of recombinant human GST-tagged full length BRAF expressed in baculovirus expression system at 500 nM using Ser/Thr 03 peptide as substrate incubated for 1 hr in presence of 100 uM ATP by Z'-LYTE assay relative to control
[12] = target: Tyrosine-protein kinase FRK (Homo sapiens) (UniProt P42685); experiment: Inhibition of recombinant human GST-tagged full length FRK expressed in baculovirus expression system at 500 nM using Tyr 01 peptide as substrate incubated for 1 hr in presence of ATP at its Km concentration by Z'-LYTE assay relative to control

Vascular endothelial growth factor receptor 3 (Homo sapiens), sequence (P35916 whole entry, the tested form may be a part): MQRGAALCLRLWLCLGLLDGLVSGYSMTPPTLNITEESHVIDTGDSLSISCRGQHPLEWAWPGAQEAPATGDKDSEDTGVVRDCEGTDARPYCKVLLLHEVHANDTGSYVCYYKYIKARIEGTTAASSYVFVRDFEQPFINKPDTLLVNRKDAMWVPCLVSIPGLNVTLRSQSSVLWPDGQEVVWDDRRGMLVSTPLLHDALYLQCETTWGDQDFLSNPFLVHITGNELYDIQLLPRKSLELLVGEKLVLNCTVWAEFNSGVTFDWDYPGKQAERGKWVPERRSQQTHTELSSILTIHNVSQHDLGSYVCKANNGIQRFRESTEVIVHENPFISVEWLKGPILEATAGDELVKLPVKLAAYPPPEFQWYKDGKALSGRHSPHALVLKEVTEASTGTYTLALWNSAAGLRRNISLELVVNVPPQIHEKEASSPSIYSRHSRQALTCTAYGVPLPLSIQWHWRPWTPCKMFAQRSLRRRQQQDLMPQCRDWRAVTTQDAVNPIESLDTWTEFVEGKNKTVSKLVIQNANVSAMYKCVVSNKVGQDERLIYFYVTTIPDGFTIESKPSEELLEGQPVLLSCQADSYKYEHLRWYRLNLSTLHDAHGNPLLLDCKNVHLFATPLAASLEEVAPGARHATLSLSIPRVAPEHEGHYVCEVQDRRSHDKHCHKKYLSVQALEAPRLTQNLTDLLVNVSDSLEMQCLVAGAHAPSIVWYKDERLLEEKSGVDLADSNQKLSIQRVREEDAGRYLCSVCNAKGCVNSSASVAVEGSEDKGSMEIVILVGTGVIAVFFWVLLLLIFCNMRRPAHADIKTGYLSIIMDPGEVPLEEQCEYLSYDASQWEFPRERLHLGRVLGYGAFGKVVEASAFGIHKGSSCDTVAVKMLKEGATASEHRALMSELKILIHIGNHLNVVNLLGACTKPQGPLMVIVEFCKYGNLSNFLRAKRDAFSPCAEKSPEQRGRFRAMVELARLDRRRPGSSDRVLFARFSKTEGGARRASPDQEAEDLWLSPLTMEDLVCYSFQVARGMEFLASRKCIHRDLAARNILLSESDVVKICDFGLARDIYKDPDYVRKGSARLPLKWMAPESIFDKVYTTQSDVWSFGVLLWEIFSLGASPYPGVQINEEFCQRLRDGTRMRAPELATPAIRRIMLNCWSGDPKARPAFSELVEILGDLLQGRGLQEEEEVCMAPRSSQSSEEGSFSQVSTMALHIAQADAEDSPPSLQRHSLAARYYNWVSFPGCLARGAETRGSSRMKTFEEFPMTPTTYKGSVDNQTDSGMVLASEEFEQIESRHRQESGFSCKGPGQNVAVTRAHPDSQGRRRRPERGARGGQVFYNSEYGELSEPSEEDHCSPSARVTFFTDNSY
Platelet-derived growth factor receptor beta (Homo sapiens), sequence (P09619 whole entry, the tested form may be a part): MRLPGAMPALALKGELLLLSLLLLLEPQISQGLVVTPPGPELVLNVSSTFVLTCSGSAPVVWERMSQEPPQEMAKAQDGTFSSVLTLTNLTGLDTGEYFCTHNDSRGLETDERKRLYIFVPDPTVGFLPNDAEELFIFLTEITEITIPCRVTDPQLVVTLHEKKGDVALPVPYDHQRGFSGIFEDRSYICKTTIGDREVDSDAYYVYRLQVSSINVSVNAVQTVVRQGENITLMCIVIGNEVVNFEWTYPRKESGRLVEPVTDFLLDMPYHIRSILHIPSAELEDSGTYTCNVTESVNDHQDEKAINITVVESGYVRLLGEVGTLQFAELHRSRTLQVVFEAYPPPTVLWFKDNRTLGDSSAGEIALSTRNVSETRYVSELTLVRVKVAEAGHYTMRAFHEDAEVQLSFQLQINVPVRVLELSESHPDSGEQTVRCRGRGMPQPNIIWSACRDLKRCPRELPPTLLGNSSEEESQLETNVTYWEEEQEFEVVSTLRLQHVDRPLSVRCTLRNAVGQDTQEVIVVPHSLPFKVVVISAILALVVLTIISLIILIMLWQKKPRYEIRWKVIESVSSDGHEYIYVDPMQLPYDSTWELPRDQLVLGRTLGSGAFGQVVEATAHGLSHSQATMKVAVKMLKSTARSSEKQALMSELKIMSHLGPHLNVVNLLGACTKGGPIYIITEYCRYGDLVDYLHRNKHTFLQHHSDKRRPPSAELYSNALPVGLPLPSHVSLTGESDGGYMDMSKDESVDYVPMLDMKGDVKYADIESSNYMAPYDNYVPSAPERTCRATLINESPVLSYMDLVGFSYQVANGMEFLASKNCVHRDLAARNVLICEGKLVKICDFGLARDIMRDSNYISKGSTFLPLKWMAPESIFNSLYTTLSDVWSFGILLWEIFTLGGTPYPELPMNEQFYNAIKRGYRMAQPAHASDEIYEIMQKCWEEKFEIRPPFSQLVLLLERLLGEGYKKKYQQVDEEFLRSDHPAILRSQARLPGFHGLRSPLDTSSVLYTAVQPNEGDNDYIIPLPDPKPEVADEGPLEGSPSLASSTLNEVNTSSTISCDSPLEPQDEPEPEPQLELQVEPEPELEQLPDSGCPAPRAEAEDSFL
Serine/threonine-protein kinase B-raf (Homo sapiens), sequence (P15056 whole entry): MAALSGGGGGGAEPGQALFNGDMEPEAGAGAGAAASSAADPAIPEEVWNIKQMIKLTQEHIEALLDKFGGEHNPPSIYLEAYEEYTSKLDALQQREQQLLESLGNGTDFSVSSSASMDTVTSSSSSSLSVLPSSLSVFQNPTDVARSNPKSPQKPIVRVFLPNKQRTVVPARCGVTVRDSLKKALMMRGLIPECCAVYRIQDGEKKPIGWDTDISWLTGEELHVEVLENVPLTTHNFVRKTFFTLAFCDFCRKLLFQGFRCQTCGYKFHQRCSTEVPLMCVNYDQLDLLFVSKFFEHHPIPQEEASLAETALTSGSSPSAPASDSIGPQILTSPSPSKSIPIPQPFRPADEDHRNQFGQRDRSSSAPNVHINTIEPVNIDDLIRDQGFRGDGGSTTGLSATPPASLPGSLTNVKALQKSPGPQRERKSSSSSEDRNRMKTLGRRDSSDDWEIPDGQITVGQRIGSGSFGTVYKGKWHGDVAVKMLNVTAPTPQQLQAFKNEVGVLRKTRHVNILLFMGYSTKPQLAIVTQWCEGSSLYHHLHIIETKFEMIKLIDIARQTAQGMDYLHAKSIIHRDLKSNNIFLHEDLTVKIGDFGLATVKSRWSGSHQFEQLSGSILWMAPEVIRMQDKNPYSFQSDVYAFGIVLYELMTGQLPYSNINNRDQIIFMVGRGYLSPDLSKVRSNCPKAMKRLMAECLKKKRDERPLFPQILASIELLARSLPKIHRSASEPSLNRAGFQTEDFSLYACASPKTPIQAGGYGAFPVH
Ephrin type-A receptor 2 (Homo sapiens), sequence (P29317 whole entry, the tested form may be a part): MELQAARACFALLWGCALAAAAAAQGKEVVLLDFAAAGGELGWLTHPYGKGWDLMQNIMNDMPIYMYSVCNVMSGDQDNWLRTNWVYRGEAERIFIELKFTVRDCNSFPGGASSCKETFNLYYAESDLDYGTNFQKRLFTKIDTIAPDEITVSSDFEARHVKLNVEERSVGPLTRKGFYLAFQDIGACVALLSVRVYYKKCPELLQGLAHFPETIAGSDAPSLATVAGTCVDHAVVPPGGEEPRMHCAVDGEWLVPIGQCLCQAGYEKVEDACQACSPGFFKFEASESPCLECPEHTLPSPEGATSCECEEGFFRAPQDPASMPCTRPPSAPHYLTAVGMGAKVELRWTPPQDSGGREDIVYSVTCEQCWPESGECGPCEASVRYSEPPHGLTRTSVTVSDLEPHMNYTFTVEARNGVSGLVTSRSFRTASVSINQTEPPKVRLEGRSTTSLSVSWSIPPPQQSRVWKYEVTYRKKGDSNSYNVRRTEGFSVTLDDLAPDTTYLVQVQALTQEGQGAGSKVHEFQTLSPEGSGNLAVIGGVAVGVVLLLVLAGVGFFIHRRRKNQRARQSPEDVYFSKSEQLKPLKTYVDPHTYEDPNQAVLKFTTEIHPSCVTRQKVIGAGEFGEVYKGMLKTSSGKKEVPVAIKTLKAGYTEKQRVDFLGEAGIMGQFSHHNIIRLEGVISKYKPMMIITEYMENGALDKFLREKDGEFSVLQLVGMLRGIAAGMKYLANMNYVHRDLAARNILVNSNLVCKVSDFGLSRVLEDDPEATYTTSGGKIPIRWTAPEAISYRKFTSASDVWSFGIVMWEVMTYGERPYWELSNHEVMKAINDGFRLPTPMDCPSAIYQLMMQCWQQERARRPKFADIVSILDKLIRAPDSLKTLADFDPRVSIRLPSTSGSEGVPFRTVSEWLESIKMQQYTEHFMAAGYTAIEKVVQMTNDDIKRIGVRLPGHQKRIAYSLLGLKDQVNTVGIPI
Tyrosine-protein kinase Fer (Homo sapiens), sequence (P16591 whole entry, looked up, the tested form may be a part): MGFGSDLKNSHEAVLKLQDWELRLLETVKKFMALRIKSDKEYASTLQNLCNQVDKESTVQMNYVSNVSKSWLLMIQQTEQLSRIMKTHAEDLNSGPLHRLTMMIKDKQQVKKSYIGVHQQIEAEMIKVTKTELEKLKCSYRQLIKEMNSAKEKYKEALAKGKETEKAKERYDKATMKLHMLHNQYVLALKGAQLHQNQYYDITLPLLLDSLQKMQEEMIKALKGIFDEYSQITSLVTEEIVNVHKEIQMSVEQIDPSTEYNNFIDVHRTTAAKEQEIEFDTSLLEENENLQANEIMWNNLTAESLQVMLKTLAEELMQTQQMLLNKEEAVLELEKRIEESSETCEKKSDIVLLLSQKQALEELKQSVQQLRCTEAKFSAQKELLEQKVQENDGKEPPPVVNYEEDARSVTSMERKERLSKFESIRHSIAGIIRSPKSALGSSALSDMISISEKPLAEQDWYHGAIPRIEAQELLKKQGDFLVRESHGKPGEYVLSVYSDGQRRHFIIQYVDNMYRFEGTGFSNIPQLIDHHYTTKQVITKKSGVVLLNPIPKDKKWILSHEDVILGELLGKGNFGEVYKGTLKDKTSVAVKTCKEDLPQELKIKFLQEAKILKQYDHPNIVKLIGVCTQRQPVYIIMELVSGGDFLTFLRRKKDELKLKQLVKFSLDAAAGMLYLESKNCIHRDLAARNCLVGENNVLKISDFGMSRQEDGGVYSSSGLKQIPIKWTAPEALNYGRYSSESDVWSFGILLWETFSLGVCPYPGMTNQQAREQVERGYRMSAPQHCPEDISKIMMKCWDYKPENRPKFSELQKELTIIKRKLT

Row | Compound | inhibition [1] [%] | inhibition [2] [%] | inhibition [3] [%] | inhibition [4] [%] | inhibition [5] [%] | inhibition [6] [%] | inhibition [7] [%] | inhibition [8] [%] | inhibition [9] [%] | inhibition [10] [%] | inhibition [11] [%] | inhibition [12] [%]
1 | COc1ccccc1-c1cc2c(N[C@H](CO)c3ccccc3)ncnc2[nH]1 | 12 | 6 | 7 | 7 | 6 | 1 | 29 | 7 | 0 | -1 | 4 | 36
2 | C#Cc1cccc(Nc2ncnc3cc(OCCOC)c(OCCOC)cc23)c1 [ERLOTINIB] | 44 | -8 | 32 | -1 | -4 | -8 | 38 | 11 | -5 | -10 | 3 | 16
3 | OC[C@@H](Nc1ncnc2[nH]c(-c3ccccc3)cc12)c1ccccc1 | 6 | 8 | 0 | 6 | 16 | 0 | 33 | 16 | -1 | 1 | -2 | 33

Next, values leading:

Row | inhibition [1] [%] | inhibition [2] [%] | inhibition [3] [%] | inhibition [4] [%] | inhibition [5] [%] | inhibition [6] [%] | inhibition [7] [%] | inhibition [8] [%] | inhibition [9] [%] | inhibition [10] [%] | inhibition [11] [%] | inhibition [12] [%] | Compound
4 | 21 | 13 | 17 | 12 | 3 | 8 | 14 | 21 | 8 | 6 | 7 | 32 | CCOc1ccccc1-c1cc2c(N[C@H](CO)c3ccccc3)ncnc2[nH]1
5 | 27 | 8 | 19 | 7 | 9 | 15 | 22 | 54 | 10 | 4 | -4 | 49 | CN(C)CCNCc1ccc(-c2cc3c(N[C@H](CO)c4ccccc4)ncnc3[nH]2)cc1F
6 | 20 | 8 | 27 | 10 | 0 | 13 | 17 | 23 | 11 | 7 | -3 | 14 | OCC[C@@H](Nc1ncnc2[nH]c(-c3ccccc3)cc12)c1ccccc1
